This data set concerns CCRIS mutagenicity, Ames/micronucleus/aberration tests. The data set is described as follows: CCRIS mutagenicity studies.
Where [1] appears, read: Test System: AMES SALMONELLA TYPHIMURIUM, Strain/Indicator: TA98, Metabolic Activation: NONE, Method: STANDARD PLATE.
Setting [2] is: Test System: AMES SALMONELLA TYPHIMURIUM, Strain/Indicator: TA100, Metabolic Activation: NONE, Method: STANDARD PLATE.
The mark [3] stands for this setting: Test System: Mouse lymphoma, Strain/Indicator: L5178Y (tk+/tk-), Metabolic Activation: None, Method: Suspension/plate.
[4] abbreviates: Test System: Mouse lymphoma, Strain/Indicator: L5178Y (tk+/tk-), Metabolic Activation: Rat, Liver, S-9, Aroclor 1254, Method: Suspension/plate.

Entries after “also recorded” stand apart in the source; their conditions may differ. Activity calls are given as the source filed them. The rule behind the calls is not given here.

Results on eleven compounds are retold here after PubChem BioAssay AID1259407 (Chemical Carcinogenesis Research Information System (CCRIS), 2018).

For `COc1ccc2nc(S(=O)Cc3ncc(C)c(OC)c3C)[nH]c2c1` (stereo not given), the mutagenic call (End Point: IN VITRO MICRONUCLEUS, Test System: AHH-1 CELLS, Metabolic Activation: NONE) is “active; positive”; the mutagenic call (End Point: IN VITRO MICRONUCLEUS, Test System: HEPATOCYTES, Species: RAT, Strain/Sex: SPRAGUE-DAWLEY/FEMALE, Metabolic Activation: NONE) was “active; positive; at 33 mg dose in 50% of rats”; the mutagenic call (End Point: IN VITRO MICRONUCLEUS, Test System: HUMAN LYMPHOCYTES, Metabolic Activation: NONE) is “active; positive (in 4/5 donors); also recorded: active; positive; only at 18 ug/ml and 1 of 2 donors”; the mutagenic call (End Point: IN VITRO MICRONUCLEUS, Test System: MCL-5 CELLS, Metabolic Activation: NONE) is “active; positive”; the mutagenic call (End Point: IN VIVO MICRONUCLEUS, Test System: BONE MARROW POLYCHROMATIC ERYTHROCYTES, Species: RAT, Strain/Sex: SPRAGUE-DAWLEY/FEMALE, Route: ORAL) is “inactive; negative; some increase but not statistically significant”; the mutagenic call (End Point: IN VIVO MICRONUCLEUS, Test System: HEPATOCYTES, Species: RAT, Strain/Sex: SPRAGUE-DAWLEY/FEMALE, Route: ORAL) is “active; positive”.

As for `CC1(C)CCC[C@]2(C)[C@@H](C=O)C(C=O)=CC[C@@H]12`, the mutagenic call is, setting by setting: under setting [1], “inactive; negative”; under setting [2], “inactive; negative”; (Test System: AMES SALMONELLA TYPHIMURIUM, Strain/Indicator: TA2637, Metabolic Activation: NONE, Method: STANDARD PLATE) “inactive; negative”; (Test System: CHINESE HAMSTER V-79, Strain/Indicator: V-79/6-THIOGUANINE (HGPRT), Metabolic Activation: NONE) “inactive; negative”.

For `Oc1ccc(Oc2c(Cl)cc(Cl)cc2Cl)cc1`, the mutagenic call by setting is: (Test System: AMES SALMONELLA TYPHIMURIUM, Strain/Indicator: TA98, Metabolic Activation: S-9, Method: STANDARD PLATE) “inactive; negative”; (Test System: AMES SALMONELLA TYPHIMURIUM, Strain/Indicator: TA100, Metabolic Activation: S-9, Method: STANDARD PLATE) “inactive; negative”; (Test System: AMES SALMONELLA TYPHIMURIUM, Strain/Indicator: YG1021, Metabolic Activation: S-9, Method: STANDARD PLATE) “inactive; negative”; (Test System: AMES SALMONELLA TYPHIMURIUM, Strain/Indicator: YG1024, Metabolic Activation: S-9, Method: STANDARD PLATE) “inactive; negative”; (Test System: AMES SALMONELLA TYPHIMURIUM, Strain/Indicator: YG1026, Metabolic Activation: S-9, Method: STANDARD PLATE) “inactive; negative”; (Test System: AMES SALMONELLA TYPHIMURIUM, Strain/Indicator: YG1029, Metabolic Activation: S-9, Method: STANDARD PLATE) “inactive; negative”.

As to `CC1OC(OC2CC(O)(CO)Cc3c(O)c4c(c(O)c32)C(=O)c2ccccc2C4=O)C(I)C(O)C1O` (stereo not given), the mutagenic call reads like this: (Test System: AMES SALMONELLA TYPHIMURIUM, Strain/Indicator: TA97A, Metabolic Activation: NONE, Method: STANDARD PLATE) “inactive; negative”; (Test System: AMES SALMONELLA TYPHIMURIUM, Strain/Indicator: TA97A, Metabolic Activation: RAT, LIVER, S-9, AROCLOR 1254, Method: STANDARD PLATE) “inactive; negative”; under setting [1], “inactive; negative”; (Test System: AMES SALMONELLA TYPHIMURIUM, Strain/Indicator: TA98, Metabolic Activation: RAT, LIVER, S-9, AROCLOR 1254, Method: STANDARD PLATE) “inactive; negative”; under setting [2], “inactive; negative”; (Test System: AMES SALMONELLA TYPHIMURIUM, Strain/Indicator: TA100, Metabolic Activation: RAT, LIVER, S-9, AROCLOR 1254, Method: STANDARD PLATE) “inactive; negative”. The mutagenic call by setting is: (Test System: AMES SALMONELLA TYPHIMURIUM, Strain/Indicator: TA102, Metabolic Activation: NONE, Method: STANDARD PLATE) “active; positive”; (Test System: AMES SALMONELLA TYPHIMURIUM, Strain/Indicator: TA102, Metabolic Activation: RAT, LIVER, S-9, AROCLOR 1254, Method: STANDARD PLATE) “inactive; negative”.

As to `O=C(NCc1ccccc1)C1CO1` (stereo not given), the mutagenic call is “active; positive” (Test System: AMES SALMONELLA TYPHIMURIUM, Strain/Indicator: TA100, Metabolic Activation: MOUSE, LIVER, S-9, AROCLOR 1254, Method: STANDARD PLATE) and “active; positive” under setting [2].

As to `Nc1nc(OCc2ccccc2)c2[nH]cnc2n1`, the mutagenic call by setting is: under setting [3], “active; positive”; under setting [4], “inconclusive”.

In the case of `Brc1cc(Br)c(-c2cc(Br)c(Br)cc2Br)cc1Br`, the mutagenic call (Test System: CHINESE HAMSTER V-79, Strain/Indicator: V-79 (HGPRT)/6-THIOGUANINE, Metabolic Activation: NONE) was “inactive; negative”.

On to `CCN1CCOCC1`, for which the mutagenic call (Test System: AMES SALMONELLA TYPHIMURIUM, Strain/Indicator: TA98, Metabolic Activation: HAMSTER, LIVER, S-9, AROCLOR 1254 (10%), Method: PREINCUBATION) is “inactive; negative”; the mutagenic call (Test System: AMES SALMONELLA TYPHIMURIUM, Strain/Indicator: TA98, Metabolic Activation: NONE, Method: PREINCUBATION) is “inactive; negative”; the mutagenic call (Test System: AMES SALMONELLA TYPHIMURIUM, Strain/Indicator: TA98, Metabolic Activation: RAT, LIVER, S-9, AROCLOR 1254 (10%), Method: PREINCUBATION) was “inactive; negative”; the mutagenic call (Test System: AMES SALMONELLA TYPHIMURIUM, Strain/Indicator: TA100, Metabolic Activation: HAMSTER, LIVER, S-9, AROCLOR 1254 (10%), Method: PREINCUBATION) is “inactive; negative”; the mutagenic call (Test System: AMES SALMONELLA TYPHIMURIUM, Strain/Indicator: TA100, Metabolic Activation: NONE, Method: PREINCUBATION) is “inactive; negative”; the mutagenic call (Test System: AMES SALMONELLA TYPHIMURIUM, Strain/Indicator: TA100, Metabolic Activation: RAT, LIVER, S-9, AROCLOR 1254 (10%), Method: PREINCUBATION) was “inactive; negative”. Moreover, the mutagenic call is “active; positive” (Test System: AMES SALMONELLA TYPHIMURIUM, Strain/Indicator: TA1535, Metabolic Activation: HAMSTER, LIVER, S-9, AROCLOR 1254 (5 OR 30%), Method: PREINCUBATION); “active; positive” (Test System: AMES SALMONELLA TYPHIMURIUM, Strain/Indicator: TA1535, Metabolic Activation: HAMSTER, LIVER, S-9, AROCLOR 1254 (10%), Method: PREINCUBATION); “inactive; negative” (Test System: AMES SALMONELLA TYPHIMURIUM, Strain/Indicator: TA1535, Metabolic Activation: NONE, Method: PREINCUBATION); “active; positive” (Test System: AMES SALMONELLA TYPHIMURIUM, Strain/Indicator: TA1535, Metabolic Activation: RAT, LIVER, S-9, AROCLOR 1254 (5 OR 30%), Method: PREINCUBATION); “active; positive” (Test System: AMES SALMONELLA TYPHIMURIUM, Strain/Indicator: TA1535, Metabolic Activation: RAT, LIVER, S-9, AROCLOR 1254 (10%), Method: PREINCUBATION); “inactive; negative” (Test System: AMES SALMONELLA TYPHIMURIUM, Strain/Indicator: TA1537, Metabolic Activation: HAMSTER, LIVER, S-9, AROCLOR 1254 (10%), Method: PREINCUBATION). Moreover, the mutagenic call was “inactive; negative” (Test System: AMES SALMONELLA TYPHIMURIUM, Strain/Indicator: TA1537, Metabolic Activation: NONE, Method: PREINCUBATION) and “inactive; negative” (Test System: AMES SALMONELLA TYPHIMURIUM, Strain/Indicator: TA1537, Metabolic Activation: RAT, LIVER, S-9, AROCLOR 1254 (10%), Method: PREINCUBATION).

For the compound `O=[N+]([O-])c1ccccc1SS/C(Cl)=C(\Cl)C(Cl)=C(Cl)Cl`, the mutagenic call (Test System: AMES SALMONELLA TYPHIMURIUM, Strain/Indicator: TA100(DNP6), Metabolic Activation: NONE, Method: PREINCUBATION) was “active; positive” and the mutagenic call (Test System: AMES SALMONELLA TYPHIMURIUM, Strain/Indicator: TA100(NR), Metabolic Activation: NONE, Method: PREINCUBATION) is “active; positive”.

In the case of `CC/C=C/C=C/C=C/C=C/C=O`, the mutagenic call reads like this: under setting [1], “inactive; negative”; under setting [2], “inactive; negative”; (Test System: AMES SALMONELLA TYPHIMURIUM, Strain/Indicator: TA104, Metabolic Activation: NONE, Method: STANDARD PLATE) “inactive; negative”.

As for `C[C@H]1CCC/C=C/[C@@H]2C[C@H](O)C[C@H]2[C@H](O)/C=C/C(=O)O1`, the mutagenic call under setting [3] is “inactive; negative” and the mutagenic call under setting [4] was “equivocal”.
